Data on 1 compound can be found in US10765625B2, “Knottin-drug conjugates and methods of using the same” (THE BOARD OF TRUSTEES OF THE LELAND STANFORD JUNIOR …, priority 2016, dated 2020).

One assay has as its system D270 glioblastoma cells. The assay is described as follows: Cell proliferation, CCK-8 colorimetric assay. It is filed as cell-based. The settings on record: 4 d after treatment, read-out: ED50 (nM), cell growth inhibition. On the procedure:
(§1) U87MG, and PANC-1 cells were grown in Dulbecco's Modified Eagle Medium (DMEM) with 10% fetal bovine serum (FBS) and 1% penicillin/streptomycin. MDA-MB-468 cells were grown in DMEM and Ham's F-12 medium (DMEM/F12) with 10% FBS and 1% penicillin/streptomycin. A2780 and BxPC3 cells were grown in Roswell Park Memorial Institute medium (RPMI) 1640+L-glutamine, with 10% FBS and 1% penicillin/streptomycin. D270 cells were grown in MEM (Richter's modification, no phenol red) with 10% FBS and 0.1% Gentamicin. Unless otherwise specified, cells were incubated at 37° C., 5% CO2. Flow cytometry was performed using an EMD Millpore Guava EasyCyte 8HT flow cytometer and the resulting data were evaluated using FlowJo software provided by TreeStar, Inc. Cell proliferation was measured using the Dojindo Cell Counting Kit-8 by replacing the media in each well with 100 μL of media containing 10% WST-8. After incubation for 1 h at 37° C., absorbance, A, at 450 nm was measured with a BioTek Synergy H4 microtiter plate reader. The background signal of CCK-8 alone was subtracted from all samples. Cell proliferation was then expressed as a percentage of absorbance relative to the control of untreated cells (Equation 2). Nonlinear regression analysis was performed using GraphPad Prism.
(§2) Having identified KDC 5d as a potent inhibitor of U87MG cells with desirable payload-release properties, its efficacy against a variety of other cell lines in comparison with Gemcitabine (3) was next tested. Cells were seeded in a 96-well plate at a density of 2,500 cells per well and grown overnight at 37° C., 5% CO2 in the media described in Section 1.3. Cells were subsequently treated with 100 μL of fresh media, containing 50 nM of 3 or 5d. Cells were incubated at 37° C., 5% CO2 for 4 d. Cell proliferation was measured using the Cell Counting Kit-8 by replacing the media in each well with 100 μL of media containing 10% WST-8. After incubation for 1 h at 37° C., absorbance at 450 nm was measured with a Synergy H4 microtiter plate reader. Cell proliferation was measured according to the method described in Section 1.3. Error bars represent the standard deviation of experiments performed in triplicate.
Background: Tetrazolium dyes change colour on reduction, which living cells bring about.

The subject of assay [1] is PANC-1 pancreatic cancer cells. The assay is described as follows: Cell proliferation, CCK-8 colorimetric assay. It is filed as cell-based. The following applies: 4 d after treatment, read-out: ED50 (nM), cell growth inhibition. How it is done:
as §1, §2

Assay [2] relates to A2780 ovarian cancer cells. The assay is described as follows: Cell proliferation, CCK-8 colorimetric assay. It is filed as cell-based. The following applies: 4 d after treatment, read-out: ED50 (nM), cell growth inhibition. How it is done: as §1, §2
Assay [3] deals with BxPC3 pancreatic cancer cells. The assay is described as follows: Cell proliferation, CCK-8 colorimetric assay. It is filed as cell-based. The settings on record: 4 d after treatment, read-out: ED50 (nM), cell growth inhibition. On the procedure:
as §1, §2

The subject of assay [4] is MDA-MB-468 breast cancer cells. The assay is described as follows: Cell proliferation, CCK-8 colorimetric assay. It is filed as cell-based. The settings on record: 4 d after treatment, read-out: ED50 (nM), cell growth inhibition. How it is done:
as §1, §2

The subject of assay [5] is U87MG cells. The assay is described as follows: Competition binding assay with AF488-labeled EETI-2.5F (AF488-1), flow cytometry. The following applies: competition with 1 nM AF488-1, 4° C., 3 hours, read-out: IC50 (nM), binding affinity. On the procedure:
Once the knottin-drug conjugates 5a-d were prepared, their binding affinity to U87MG glioblastoma cells, which are known to have elevated expression of tumor-associated integrins, was tested. […] To measure the relative binding affinities of knottins 1 and 2 and KDCs 5a-d, competition binding assays were performed using AlexaFluor 488-conjugated EETI-2.5F (AF488-1) as previously described (J. W. Kim, et al., J. Am. Chem. Soc. 2015, 137, 6-9). Cells (5×10^4 per sample) were detached with 0.05% Trypsin-EDTA, washed with IBB (25 mM Tris pH 7.4, 150 mM NaCl, 2 mM CaCl2, 1 mM MgCl2, 1 mM MnCl2, and 0.1% bovine serum albumin), and incubated with 1 nM AF488-1 and varying concentrations of competitors in 800 μL of IBB at 4° C. for 3 hours. The cells were washed twice with 800 μL of PBSA (phosphate buffered saline containing 0.1% bovine serum albumin) and the fluorescence of the surface-bound AF488-1 was determined using flow cytometry. The fluorescence was normalized to that of cells treated with AF488-1 alone to obtain the fraction bound. Half-maximal inhibitory concentration (IC50) values were determined by nonlinear regression analysis. Error bars represent the standard deviation of experiments performed in triplicate.
A general note: A flow cytometer gives signals particle by particle.

Assay [6] has as its system U87MG cells. The assay is described as follows: Cell proliferation, CCK-8 colorimetric assay. It is filed as cell-based. On the procedure: as §1
Next, the potency of each KDC was tested in a cell-proliferation experiment. […] Cells were seeded in a 96-well plate at a density of 2,500 cells per well and grown overnight at 37° C., 5% CO2 in DMEM with 10% FBS and 1% penicillin/streptomycin. Cells were subsequently treated with 100 μL of fresh media, containing varying concentrations of drug, protein, or protein-drug conjugate and incubated for 4 d at 37° C., 5% CO2. Cell proliferation was measured according to the method described in Section 1.3. Error bars represent the standard deviation of experiments performed in triplicate. […] Given that the linker must be cleaved to release free Gemcitabine in order for the payload to become active, the low potency of 5b can be explained by the greater stability of the carbamate group as compared to the other linkers tested.

Where two headings read alike, the source gives them in different places.

By IC50 is commonly meant the point on the concentration scale where inhibition reaches its midpoint.

Regarding `CC(C)C[C@@H]1NC(=O)[C@@H]2CSSC[C@@H](C(=O)NCC(=O)O)NC(=O)[C@H](Cc3ccccc3)NC(=O)CNC(=O)[C@H](CC(N)=O)NC(=O)[C@@H]3CCCN3C(=O)CNC(=O)[C@@H]3CSSC[C@H](NC(=O)[C@H]([C@@H](C)O)NC(=O)[C@H](CC(C)C)NC(=O)[C@@H]4CCCN4C(=O)[C@@H]4CCCN4C(=O)[C@H](CC(N)=O)NC(=O)[C@H](CC(=O)O)NC(=O)CNC(=O)[C@H](CCCNC(=N)N)NC(=O)[C@@H]4CCCN4C(=O)[C@H](CCCNC(=N)N)NC(=O)[C@@H]4CCCN4C(=O)[C@@H](NC(=O)CN)CSSC[C@H](NC(=O)CNC(=O)[C@H](C)NC1=O)C(=O)N[C@@H](C(C)C)C(=O)N3)C(=O)N[C@@H](CCCn1cc(CCC(=O)N[C@H](C(=O)N[C@@H](C)C(=O)Nc3ccc(COC(=O)Nc4ccn([C@@H]5O[C@H](CO)[C@@H](O)C5(F)F)c(=O)n4)cc3)C(C)C)nn1)C(=O)N[C@@H](CCC(N)=O)C(=O)N[C@@H](CC(=O)O)C(=O)N[C@@H](CO)C(=O)N[C@@H](CC(=O)O)C(=O)N2` [5d], the EC50 is 7.9 ± 0.8 nM with D270 glioblastoma cells; 2.1 ± 0.2 nM in assay [1]; 2.3 ± 0.5 nM in assay [2]; 1.8 ± 0.8 nM in assay [3]; 0.6 ± 0.1 nM in assay [4]; 9 ± 1.8 nM with U87MG cells [6] (U87MG cells, 4 d incubation, vs untreated control, read-out: ED50 (nM), potency). The EC50 with U87MG cells [6] (U87MG glioblastoma, 4 d after treatment, read-out: ED50 (nM), cell growth inhibition) is 9 ± 1.8 nM. Besides, the IC50 in the assay on U87MG cells [5] turned out to be 1.5 ± 0.2 nM. For the same compound, the “Potency / growth inhibition in U87MG cells (in words)” value in the assay with U87MG cells [6] (U87MG cells, 4 d) is “low-nanomolar ED50 values”.
